These are literature values, as cited in patent US20250134887A1, “METHODS OF TREATING PROSTATE CANCER” (AstraZeneca AB, priority 2022, published 2025).

The series deals with patients with mCRPC harboring BRCA1, BRCA2 and ATM mutations. Particulars: disease had progressed on NHA; vs. enzalutamide or abiraterone; cited from earlier work.

As to `O=C(c1cc(Cc2n[nH]c(=O)c3ccccc23)ccc1F)N1CCN(C(=O)C2CC2)CC1` [olaparib, 4-[(3-{[4-(cyclopropane-carbonyl)piperazine-1-yl]carbonyl}-4-fluorophenyl)methyl]-2H-phthalazin-1-one], the “imaging-based progression-free survival and overall survival” value was “imaging-based progression-free survival and overall survival benefits”.
